Patent US6841366B1, “Biotin biosynthesis in bacillus subtilis” (DSM IP Assets B.V., priority 1993, dated 2005)

Assays:
[1] = test system: B. subtilis PY79 and azelaic acid resistant mutants; assay: Growth inhibition by azelaic acid, minimal agar; format: cell-based
Description: (§1) Azelaic acid, a straight chain C9 dicarboxylic acid, is a homolog of pimelic acid and is thought to be an intermediate in the conversion of oleic acid to pimelic acid (see Ohsugi and Inoue (1981) Agric. Biol. Chem. 45: 2355-2356, hereby incorporated by reference).
Seven spontaneous mutants that outgrew the background of PY79 on 2 g/l Azelaic acid were isolated. The resistance to azelaic acid appeared to be a stable trait in all but one case (see below). The seven mutants were provisionally named PA1-PA7 (PY79 Azelaic acid resistant). PA1 through PA7 were grown in test tubes in VY medium, and biotin production was assayed using E. coli indicator strains (Table 15). The mutants fell into two classes, those that yielded more biotin than PY79 (PA5, PA6) and those that were similar to PY79 (PA1, 2, 3, and 7). PA4 appeared to be either unstable or not a true mutant and was dropped from further study. Applicants also noticed that the mutants fell into two classes with respect to colony size on minimal agar with 2 g/l azelaic acid, and that these two classes corresponded to the two classes of biotin producers (Table 11). The mutants with the most biotin in the supernatant (PA5 and PA6) gave small colonies, while the biotin non-secreters, PA1, 2, 3, and 7, gave large colonies. PA1 and PA3 secreted a compound that cross-fed PY79 (i.e., reversed the azelaic acid inhibition of PY79) on minimal plates containing 2 g/l azelaic acid.

E. coli strain MM294 = assay: Azelaic acid sensitivity of wild-type E. coli; format: cell-based
Description: (§2) Therefore, Applicants concluded that azelaic acid acts at the level of pimelyl CoA synthetase (bioW), either as a competitive inhibitor of pimelic acid, or by incorporation into a biotin homolog or other toxic intermediate.

[2] = test system: E. coli strain RY604(ΔbioH) containing pBIO403; assay: Growth of E. coli carrying only B. subtilis bioW, with pimelic acid and azelaic acid; format: cell-based
Protocol: A plasmid (pBIO403) containing only the B. subtilis bioW gene and its promoter cloned into pCL1921 (Lerner and Inouye, 1990, supra), complemented both E. coli ΔbioH and bioC mutants, if and only if pimelic acid was added to the medium at about 30 mg/l. This experiment confirmed that bioW encodes a pimelyl-CoA synthetase that can bypass bioH and bioC in E. coli.
as §2

PY79 bioI::cat = assay: Growth of bioI::cat mutants on biotin-free medium with supplements; format: cell-based, B. subtilis
B. subtilis = assay: Stimulation of biotin vitamer production by pimelic acid; format: cell-based; conditions: 1 g/l
Protocol: In all fermentations, 1 g/l pimelic acid was added to both the initial batch and feed solutions. BI282, BI278 and BI276 were the most optimized for biotin and biotin vitamer production.
Addition of pimelate to the fermentation medium results in an increased level of a biotin vitamer which is probably KAPA (FIG. 15, lane D). This was shown by an increase in the KAPA/BSO spot compared to similar fermentations without pimelate (FIG. 15, lane B).
as §1

| SMILES | Growth inhibition of wild-type B. subtilis ([1]; azelaic acid at concentrations higher than 30 mg/l) | Growth inhibition of PY79 ([1]; minimal agar, azelaic acid 2 g/l (about 10^−2 M), did not kill or completely prevent growth) | Colony size on 2 g/l azelaic acid ([1]; strain PA1, minimal agar) | Colony size on 2 g/l azelaic acid ([1]; strain PA2, minimal agar) | Colony size on 2 g/l azelaic acid ([1]; strain PA3, minimal agar) | Colony size on 2 g/l azelaic acid ([1]; strain PA4, minimal agar) | Colony size on 2 g/l azelaic acid ([1]; strain PA5, minimal agar) | Colony size on 2 g/l azelaic acid ([1]; strain PA6, minimal agar) | Colony size on 2 g/l azelaic acid ([1]; strain PA7, minimal agar) | Colony size on 2 g/l azelaic acid ([1]; strain PY79, minimal agar) | Sensitivity of wild-type E. coli MM294 to azelaic acid (E. coli strain MM294) | Sensitivity of RY604/pBIO403 to azelaic acid ([2]; grown in excess pimelic acid (80 mg/l)) | Growth inhibition of PY79 bioI::cat9 (PY79 bioI::cat; 30 mg/l) | Substitution for pimelic acid in supporting growth of PY79 bioI::cat9 (PY79 bioI::cat; 30 mg/l) | Effect on biotin vitamer production in B. subtilis (B. subtilis) | Satisfaction of the biotin requirement of RY604(ΔbioH)/pBIO403 ([2]; 30 mg/l) | Restoration of growth of PY79 bioI::cat9 bradytroph (PY79 bioI::cat; 30 mg/l) | Growth of PY79 bioI::cat strains (either cat orientation) on biotin-free medium (PY79 bioI::cat; pimelic acid 33 μg/ml) |
| --- | --- | --- | --- | --- | --- | --- | --- | --- | --- | --- | --- | --- | --- | --- | --- | --- | --- | --- |
| O=C(O)CCCCCCCC(=O)O [azelaic acid, Azelaic acid] | inhibits the growth | severely inhibited growth | large | large | large | tiny | small | small | large | tiny | relatively resistant | sensitive to inhibition | severely inhibited the growth | does not substitute for pimelic acid |  |  |  |  |
| O=C(O)CCCCCC(=O)O [pimelic acid] |  |  |  |  |  |  |  |  |  |  |  |  |  |  | stimulate biotin vitamer production | can satisfy the biotin requirement | restore wild-type growth | grew to wild-type levels |
